Read-outs that look alike come from different tables or passages of the source.

The record followed here is patent US20250009777A1 (priority 2021, published 2025).

For data set [1], the system named is SARS-CoV-2 Wuhan strain. In words: Antiviral activity against SARS-CoV-2 Wuhan strain, same manner as Example 1. Format: cell-based. As to conditions: for SI: CC50 relative to EC50.
The nature of data set [2]: Cytotoxicity (CC50) of structural analogs, Table 4. In kind it is cell-based. As to conditions: cell line not stated. Here is the method:
Measurement of the antiviral activity was conducted in the same manner as Example 1. […] Among these compounds, compounds (A2), (A4) and (A6) had satisfactory differences in the ECso and CCso concentration levels, indicating particular promise as antiviral agents.

A short description of data set [3]: in vitro. As to conditions: human.
Data set [4] relates to ZIKV. In words: microbe, parasite or virus in culture. Format: cell-based. The conditions noted are these: Zika virus, BHK-21, 72 h.
Data set [5] has as its system HCoV-OC43. In words: microbe, parasite or virus in culture. In kind it is cell-based, Human Coronavirus. As to conditions: Betacoronavirus 1, OC43, MRC5.
The test system of data set [6] is DENV3. In words: microbe, parasite or virus in culture. In kind it is cell-based. As to conditions: Dengue virus, DENV3, BHK-21, 120 h.
The test system of data set [7] is DENV4. In words: microbe, parasite or virus in culture. Format: cell-based. As to conditions: Dengue virus, DENV4, BHK-21, 120 h.
Data set [8] concerns DENV2. In words: Library screening for inhibition of cell death of flavivirus-infected cells. Format: cell-based, dengue virus. As to conditions: compound library screening. The method, then: Using the compounds of a compound library based on nucleic acid compounds held by the Center for Research and Education on Drug Discovery, Hokkaido University, National University Corporation as test samples, screening was conducted for compounds having an effect in inhibiting cell death of cells infected with a flavivirus. DENV2 was used as the flavivirus.

Data set [9] can be described thus: in vitro. The conditions noted are these: Syrian hamster.
The test system of data set [10] is HCoV-229E. In words: microbe, parasite or virus in culture. Format: cell-based. As to conditions: Human coronavirus 229E, MRC5.
In data set [11] the test system is CHIKV. In words: microbe, parasite or virus in culture. Format: cell-based. As to conditions: Chikungunya virus, BHK-21.
Data set [12] relates to JEV. In words: microbe, parasite or virus in culture. Format: cell-based. As to conditions: Japanese encephalitis virus, BHK-21, 72 h.
The test system of data set [13] is DENV2. In words: microbe, parasite or virus in culture. Format: cell-based. The conditions noted are these: Dengue virus, DENV2, BHK-21, 96 h.
In data set [14] the test system is AG129 mouse-adapted DENV2. Format: in vivo, mice. As to conditions: for Survival rate: death = bodyweight below 70%; for day post virus infection until which all of the mice survived: death = bodyweight below 80% of initial, FIG. 2A.
Data set [15] deals with coronaviruses, flaviviruses and togaviruses. Format: cell-based.
In data set [16] the test system is WNV. In words: microbe, parasite or virus in culture. Format: cell-based. As to conditions: West Nile virus, BHK-21, 72 h.
Data set [17] deals with DENV1. In words: microbe, parasite or virus in culture. Format: cell-based. The conditions noted are these: Dengue virus, DENV1, BHK-21, 120 h.
In data set [18] the test system is YFV. In words: microbe, parasite or virus in culture. The conditions noted are these: Yellow fever virus, BHK-21, 72 h. In kind it is cell-based.
Where [19] appears, read: Severe acute respiratory syndrome coronavirus 2.

Usually EC50 stands for the concentration that produces a half-maximal response. Low readings indicate an effect from little substance, high ones a need for much substance. Take “2′,3′-O-isopropylidene-5′-O-propynyl-2-thiouridine [Compound A5]”: in data set [1], the midpoint of the response, the EC50, lay at 7.56 µM and the SI turned out to be 1.6. The same compound yielded a CC50 in data set [2] of 11.9 µM.
`O=c1ccn(C2O[C@H](CO)[C@@H](O)[C@H]2O)c(=NO)[nH]1` (stereo partly drawn) [Compound A4] showed an SI in data set [1] of 7.5. In data set [1] (setting [19]), this compound came in with an EC50 of 0.81 µM. This compound also returned a CC50 in data set [2] of 6.04 µM.
For the compound `CSc1nc(=O)ccn1C1O[C@H](CO)[C@@H](O)[C@H]1O` (stereo partly drawn) [Compound A3], in data set [1], the SI is 1.2. The half-maximal effective concentration (EC50) in [1] (setting [19]) is 4.67 µM. This compound gave a CC50 in data set [2] of 5.48 µM.
As for `O=c1ccn([C@@H]2O[C@H](CO)[C@@H](O)[C@H]2O)c(=S)[nH]1` [2-thiouridine], the CC50 in data set [3] and in data set [9] was > 50 µM throughout. Further, the EC50 was 5 µM in [4]; 13 µM in data set [5]; 2 µM in data set [6]; 1.7 µM in data set [7]; 0.77 µM in [10]; 8.2 µM in data set [11]. In addition, the EC50 in [12] came to 4.8 µM; in data set [13], 1.5 µM; in [16], 5.3 µM; in data set [17], 2.4 µM; in data set [18], 2.9 µM. The “antiviral activity (inhibiting cell death of infected cells)” value in [8] is on record as “exhibited antiviral activity”. In data set [14] (50 mg/kg (n=8) and 150 mg/kg (n=9) groups compared with vehicle, in words), the “survival rate for the virus-infected mice” value is reported as “increased in a dosage-dependent manner”. The Survival rate in data set [14] (50 mg/kg oral twice per day, n = 8, day 0 post infection) came out at 100%; in [14] (50 mg/kg oral twice per day, n = 8, day 1 post infection), 100%; in data set [14] (50 mg/kg oral twice per day, n = 8, day 2 post infection) it was 100%; in data set [14] (50 mg/kg oral twice per day, n = 8, day 3 post infection), 100%; in data set [14] (50 mg/kg oral twice per day, n = 8, day 4 post infection), 100%; in [14] (50 mg/kg oral twice per day, n = 8, day 5 post infection), 100%. The Survival rate in data set [14] (50 mg/kg oral twice per day, n = 8, day 6 post infection) is given as 100%; in data set [14] (50 mg/kg oral twice per day, n = 8, day 7 post infection), 100%; in data set [14] (50 mg/kg oral twice per day, n = 8, day 8 post infection), 100%; in [14] (50 mg/kg oral twice per day, n = 8, day 9 post infection) it was 100%; in data set [14] (50 mg/kg oral twice per day, n = 8, day 10 post infection), 100%; in data set [14] (50 mg/kg oral twice per day, n = 8, day 11 post infection), 75%. The Survival rate is 50% in [14] (50 mg/kg oral twice per day, n = 8, day 12 post infection); 37.5% in data set [14] (50 mg/kg oral twice per day, n = 8, day 13 post infection); 37.5% in data set [14] (50 mg/kg oral twice per day, n = 8, day 14 post infection); 0% in [14] (50 mg/kg oral twice per day, n = 8, day 15 post infection); 100% in data set [14] (150 mg/kg oral twice per day, n = 9, day 0 post infection); 100% in [14] (150 mg/kg oral twice per day, n = 9, day 1 post infection). The Survival rate was found to be 100% in data set [14] (150 mg/kg oral twice per day, n = 9, day 2 post infection); 100% in data set [14] (150 mg/kg oral twice per day, n = 9, day 3 post infection); 100% in data set [14] (150 mg/kg oral twice per day, n = 9, day 4 post infection); 100% in [14] (150 mg/kg oral twice per day, n = 9, day 5 post infection); 100% in data set [14] (150 mg/kg oral twice per day, n = 9, day 6 post infection); 100% in [14] (150 mg/kg oral twice per day, n = 9, day 7 post infection). The Survival rate in data set [14] (150 mg/kg oral twice per day, n = 9, day 8 post infection) is listed as 100%; in data set [14] (150 mg/kg oral twice per day, n = 9, day 9 post infection) it was 100%; in data set [14] (150 mg/kg oral twice per day, n = 9, day 10 post infection) it was 100%; in data set [14] (150 mg/kg oral twice per day, n = 9, day 11 post infection), 88.89%; in [14] (150 mg/kg oral twice per day, n = 9, day 12 post infection), 88.89%; in data set [14] (150 mg/kg oral twice per day, n = 9, day 13 post infection), 66.67%. Moreover, the Survival rate was found to be 66.67% in data set [14] (150 mg/kg oral twice per day, n = 9, day 14 post infection); 66.67% in [14] (150 mg/kg oral twice per day, n = 9, day 15 post infection); 66.67% in data set [14] (150 mg/kg oral twice per day, n = 9, day 16 post infection). Also, the “day post virus infection until which all of the mice survived” value in data set [14] (50 mg/kg orally twice per day for 5 days, n=3) was 12 days; in [14] (150 mg/kg orally twice per day for 5 days, n=4) it was 15 days. Further, the “relative viral RNA level” value in data set [15] is given as “decreased”.
As to `O=c1ccn([C@@H]2O[C@H](CO)[C@@H](O)[C@H]2O)c(=[Se])[nH]1` [Compound A2, 2-selenouridine], the SI in data set [1] is >2.7. For the same compound, in [1] (setting [19]), the EC50 worked out at 7.37 µM. The CC50 in [2] was > 20 µM.
As for “2′,3′-O-isopropylidene-5′-O-isobutyryl-2-thiouridine [Compound A6]”, in data set [1], a half-maximal response (EC50) required 3.93 µM and the SI was 4.9. Further, the CC50 in [2] was determined as 19.4 µM.
